Results: PMC8041433 (Environmental Health Perspectives, 2021)
Several values for one entry are separate records, joined by “and”; a condition that tells them apart may be missing. Equal entries are not always repeated. Structures can show the parent of a compound that is named as a salt. Where two headings read alike, the source gives them in different places.

Columns and labels:
recombinant human AChE [1] = target: T1, recombinant human AChE (Homo sapiens, UniProt P22303); assay: biochemical
recombinant human AChE [2] = target: T1, recombinant human AChE; assay: biochemical; format: biochemical; conditions: for AC50: AC50 (uM)
[3] = target: AChE in SH-SY5Y spheroids (Homo sapiens, UniProt P22303); assay: cell-based
AChE in SH-SY5Y cells = AChE in SH-SY5Y cells (Homo sapiens, UniProt P22303); assay: cell-based
[4] = target: AChE in neural stem cells (Homo sapiens, UniProt P22303); assay: cell-based
recombinant human AChE [5] = target: T1, recombinant human AChE; assay: biochemical; remark: listed apart in the source
recombinant human AChE [6] = target: T1, recombinant human AChE
[7] = target: AChE in neural stem cell spheroids (Homo sapiens, UniProt P22303); assay: cell-based; conditions: for IC50: potency (IC50)
recombinant human AChE [8] = target: T1, recombinant human AChE; assay: biochemical; remark: listed apart in the source
[9] = potency (IC50), SH-SY5Y spheroids (24 h)
[10] = potency (IC50), SH-SY5Y spheroids (48 h)
[11] = potency (IC50), SH-SY5Y cells monolayer
[12] = potency (IC50), Enzyme with microsomes
[13] = Neural stem cell spheroid (24 h)
[14] = Neural stem cell spheroid (48 h)
Throughout, for IR or R: key: Reversible (R); Irreversible (IR); ND, not detected in enzyme-based AChE inhibition assay from current study.

Chain of AChE in SH-SY5Y spheroids (P22303 32-614): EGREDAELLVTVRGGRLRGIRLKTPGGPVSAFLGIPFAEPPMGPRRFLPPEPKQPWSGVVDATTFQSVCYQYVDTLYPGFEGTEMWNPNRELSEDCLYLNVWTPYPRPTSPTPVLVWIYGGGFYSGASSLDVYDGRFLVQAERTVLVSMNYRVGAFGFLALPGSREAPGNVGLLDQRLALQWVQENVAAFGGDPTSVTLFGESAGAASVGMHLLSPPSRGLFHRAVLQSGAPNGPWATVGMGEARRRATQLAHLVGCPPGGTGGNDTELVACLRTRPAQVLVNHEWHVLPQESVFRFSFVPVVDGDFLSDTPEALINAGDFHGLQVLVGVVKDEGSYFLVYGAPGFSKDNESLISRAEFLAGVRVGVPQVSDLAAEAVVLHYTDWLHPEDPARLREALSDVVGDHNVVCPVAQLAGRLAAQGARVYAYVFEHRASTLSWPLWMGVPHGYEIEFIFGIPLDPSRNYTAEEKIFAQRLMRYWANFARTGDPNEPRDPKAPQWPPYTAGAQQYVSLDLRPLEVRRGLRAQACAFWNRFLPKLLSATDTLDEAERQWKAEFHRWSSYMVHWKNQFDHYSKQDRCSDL
Chain of AChE in SH-SY5Y cells (P22303 32-614): as above
T1 sequence (P22303 32-614): as above
Chain of AChE in neural stem cells (P22303 32-614): as above
Chain of AChE in neural stem cell spheroids (P22303 32-614): as above

Structure (SMILES)	IC50 (recombinant human AChE [1]) [µM]	IC50 [3, 9] [µM]	IC50 [3, 10] [µM]	CC-v2 (curve classes) (AChE in SH-SY5Y cells)	IC50 (AChE in SH-SY5Y cells; IC50 (uM))	IC50 (AChE in SH-SY5Y cells; [11]) [µM]	IC50 [4] [µM]	IC50 (recombinant human AChE [5]; [12]) [µM]	CC-v2 (curve classes) (recombinant human AChE [6])	Efficacy (recombinant human AChE [6])	IC50 [7, 13] [µM]	IC50 [7, 14] [µM]	CC-v2 (curve classes) (recombinant human AChE [8])	Efficacy (recombinant human AChE [8])	IC50 (recombinant human AChE [8]; potency (IC50), Enzyme) [µM]	IC50 (recombinant human AChE [8]; IC50 (uM))	IR or R (recombinant human AChE [2])	AC50 (recombinant human AChE [2]; activity_5)	AC50 (recombinant human AChE [2]; activity_10)	AC50 (recombinant human AChE [2]; activity_60)	further results
COP(=S)(Oc1cc(Cl)c(Br)cc1Cl)c1ccccc1 (stereo not shown) [Leptophos]	48 ± 3.13	54.6	44.6	-2.1	63.3 µM and 71 µM and 79.6 µM	28	58.1	2.31	-1.1	-83.877	36.5	69	-3	-64.129	46.4						AC50 (recombinant human AChE [2]): 31.4 µM and 62.7 µM (3×) and 39.5 µM and 35.2 µM and 55.9 µM
CCOC(=O)CC(SP(=O)(OC)OC)C(=O)OCC (stereo not shown) [Malaoxon]	4.62 ± 0.31	4.09 ± 3.42	3.95	-1.1	3.56 µM and 3.02 µM and 3.17 µM and 2.83 µM	3.05 ± 0.52	5.86 ± 1.05	4.43	-2.1		5.05 ± 3.3	9.46	-1.1		1.46						AC50 (recombinant human AChE [2]): 22.2 µM (2×) and 9.93 µM and 7.89 µM and 25 µM and 8.85 µM (2×) and 5.59 µM and 11.1 µM
Cc1ccc2c(n1)Oc1ccc(C(C)C(=O)OCC(=O)N(C)C)cc1C2 (stereo not shown) [Mepranoprofen arbamel, reference compound]	24.3	7.46 ± 3.5	18 ± 2.29	-2.1 and -1.1	15.5 µM and 12.3 µM and 27.5 µM	19.3	12.7 ± 0.85	37.3 ± 5.13	4	0	12.5 ± 3.49	11.3	-2.2 and -1.1		15.4 ± 1.77	24.5 µM and 15.5 µM					AC50 (recombinant human AChE [2]): 12.2 µM and 13.7 µM and 19.3 µM (3×) and 7.69 µM and 17.2 µM and 9.68 µM
CNC(=O)ON=C(C)SC [Methomyl]	3.83 ± 0.53	6.41 ± 8.14	3.81 ± 0.25	-1.1	1.59 µM and 2 µM	4.11 ± 0.27	7.99 ± 1.49	3.18 ± 0.66	-1.1	-96.277	6.27 ± 2.23	9.75	-1.1	-92.651	1.83 ± 0.12		R				
CC(=O)Oc1cc(C(C)C)c(OCCN(C)C)cc1C [Moxisylyte hydrochloride, reference compound]	20.1 ± 1.36	14.3	20.9	-2.1 and -1.1	13.8 µM	20.1	19.3	19.3	-2.4	-32.666		24.3	-2.2	-54.154	21.9		R	19.3 µM and 17.2 µM and 21.7 µM	19.3 µM and 24.3 µM and 21.7 µM	17.2 µM and 24.3 µM and 21.7 µM	potency (IC50), Neural stem cell spheroid (24 h) [7]: Inactive
CNC(=C[N+](=O)[O-])NCCSCc1csc(CN(C)C)n1 [Nizatidine, reference compound]	15.6 ± 3.57	7.05 ± 1.96	12.2 ± 1.41	-1.1 and -2.1	14.2 µM and 12.6 µM and 12.3 µM and 13.8 µM and 11.2 µM	7.68	18.6 ± 1.21	20.1 ± 1.36	4				-2.1		10.5 ± 0.68	35.6 µM and 27.5 µM	R	24.3 µM and 27.3 µM and 6.85 µM	21.7 µM and 27.3 µM and 30.6 µM	27.3 µM and 19.3 µM and 24.3 µM	potency (IC50), Neural stem cell spheroid (24 h) [7]: Inactive
CNC(=O)O/N=C(\SC)C(=O)N(C)C [Oxamyl]	2.81 ± 0.32	2.28 ± 0.63	3.05 ± 0.52	-1.1	1.55 µM and 1.42 µM and 1.23 µM	2.5 ± 0.28	3.39 ± 0.22	2.16 ± 0.36	-1.1		0.96 ± 0.38	1.85	-1.1		1.74 ± 0.48			3.95 µM and 4.44 µM and 3.52 µM	2.8 µM and 3.52 µM and 2.5 µM	0.703 µM and 1.57 µM and 1.25 µM	
CCOP(=S)(OCC)Oc1ccc([N+](=O)[O-])cc1 [Parathion]	18 ± 2.29	18.1	10.6	-2.1	13.8 µM and 64.1 µM and 71.9 µM	11.3	6.88	1.27	-1.1		3.9	9.13			22.8			24.3 µM and 30.6 µM	27.3 µM and 24.3 µM	21.7 µM and 19.3 µM	
Cl.Clc1cc(Cl)c2c(c1)N=C1CCCCCN1C2 [PharmaGSID_47259]	1.54 ± 0.18	2.24 ± 2.76	0.85 ± 0.21	-1.1	0.776 µM and 0.692 µM	0.87 ± 0.18	10.7 ± 2.66	1.79 ± 0.22	-1.1	-90.391	13.5 ± 9.25	22	-1.1	-94.138	0.54 ± 0.06		R	1.09 µM and 0.544 µM	0.153 µM and 1.22 µM and 1.09 µM	0.968 µM and 0.172 µM and 1.22 µM	
O=C(O)/C=C/C(=O)O.O=C1c2ccccc2C(=O)N1CCc1noc(-c2ccc(CN3CCCCCC3)s2)n1 [PharmaGSID_48172]	21.2 ± 1.44	17.5 ± 16.2	14.5 ± 1.67	-1.1	6.51 µM and 8.19 µM	16.3 ± 1.86	36.3	24.7 ± 1.61	-2.2	-51.694	17.1 ± 3.86	20.5	-2.1	-99.042	11.1 ± 1.52	23.1 µM	R	22.9 µM and 36.3 µM and 32.3 µM	20.4 µM and 36.3 µM and 28.8 µM	32.3 µM and 40.7 µM and 22.9 µM	IC50 (recombinant human AChE [5]; IC50 (uM)): 58 µM
CCOC(=O)C(SP(=S)(OC)OC)c1ccccc1 (stereo not shown) [Phenthoate]	38.1 ± 2.48	1.01 ± 1.29	20.4 ± 5.69	-1.1 and -2.1	31.7 µM and 22.4 µM and 25.2 µM	12.6 ± 1.44	33.2 ± 15.3	29.1 ± 1.97	-3	-48.701	26.5 ± 11.5	8.66	-2.2	-77.281	25.1 ± 2.88	71 µM		44.4 µM	49.8 µM and 39.5 µM	39.5 µM and 28 µM and 31.4 µM	IC50 (recombinant human AChE [5]; IC50 (uM)): 79.6 µM
CCOP(=S)(OCC)SCn1c(=O)oc2cc(Cl)ccc21 [Phosalone]		66.3	50	-2.2	56.4 µM and 48.1 µM and 35.6 µM and 76.2 µM		17.1	2.91	-1.1		9.61	10.5	4					55.9 µM and 35.2 µM	55.9 µM and 62.7 µM and 49.8 µM	62.7 µM and 55.9 µM	potency (IC50), Enzyme-based assay with heat-inactivated microsomes (recombinant human AChE [1]): Inactive; potency (IC50), SH-SY5Y cells monolayer (AChE in SH-SY5Y cells): Inactive; IC50 (recombinant human AChE [5]; IC50 (uM)): 3.99 µM and 8.55 µM; AChE inhibition (result in words) (recombinant human AChE [8]): did not show effects; potency (IC50), Enzyme (recombinant human AChE [8]): Inactive
CCOP(=S)(OCC)O/N=C(\C#N)c1ccccc1 [Phoxim]	22 ± 4.1	13.3	12.9	-2.1	17.4 µM and 63.3 µM and 30.9 µM and 71 µM and 34.7 µM	20.9	3.18	0.67	-1.1		0.33	0.4	-2.2 and -2.1		23.4			27.3 µM and 24.3 µM	30.6 µM and 24.3 µM	21.7 µM and 19.3 µM and 24.3 µM	
Cc1nc(N(C)C)nc(OC(=O)N(C)C)c1C [Pirimicarb]	8.21 ± 0.56	7.09 ± 4.92		-1.1	11.2 µM	7.42 ± 2.77	2.84 ± 0.65	8.53 ± 0.55	-2.2	-73.016	1.4 ± 0.16	2.47	-1.1	-85.325	12.7 ± 2.36		R	49.8 µM and 62.7 µM and 22.2 µM	19.8 µM and 44.4 µM and 49.8 µM	19.8 µM and 5.59 µM and 9.93 µM	IC50 ([3]; read-out: potency (IC50), SH-SY5Y spheroids (48 h)): 15.2 ± 0.99 µM
CCCSP(=O)(OCC)Oc1ccc(Br)cc1Cl (stereo not shown) [Profenofos]	5.25 ± 0.34	2.57 ± 2.21	2.89 ± 0.65	-1.1	6.88 µM and 5.46 µM and 7.72 µM	3.71 ± 0.24	1.05 ± 0.14	3.43	-1.1	-79.632	0.2 ± 0.09	0.78	-1.1	-92.505	3.85	3.87 µM		10.9 µM and 17.2 µM and 15.3 µM	12.2 µM and 15.3 µM	6.85 µM and 7.69 µM and 13.7 µM	IC50 (recombinant human AChE [5]; IC50 (uM)): 2.74 µM
